Source: patent publication US20050014946A1, “Substituted amino ketone compounds” (priority 2001, published 2005)

Biological target: DP IV (Sus scrofa, UniProt P22411)
Assay: Ki-determination, photometric DP IV assay with substrate GP-4-Nitroanilide
Type: biochemical
Conditions: competitor of GP-4-Nitroanilide, 3.5 nM DP IV, 30° C., pH 7.6 40 mM HEPES
Method: In order to measure the inhibition constant Ki a photometric assay was used The test compounds were measured as competitors of the standard substrate GP-4-Nitroanilide. Three different substrate concentrations (0.4 mM to 0.05 mM) were combined with 8 different competitor concentrations (0.5 mM to 2 μM). The reaction was started by addition of 3.5 nM DP IV. Experiments were carried out under standard conditions: 30° C. in pH 7.6 40 mM HEPES (Sigma-Aldrich) buffer. Nitroaniline production was monitored using a HTS 7000+microplate reader (PerkinElmer, Überlingen, Germany). The Ki-values were calculated via non-linear regression using the enzyme kinetic program Grafit 4.016 (Erithacus Ltd, UK).

Chain of DP IV (P22411 whole entry): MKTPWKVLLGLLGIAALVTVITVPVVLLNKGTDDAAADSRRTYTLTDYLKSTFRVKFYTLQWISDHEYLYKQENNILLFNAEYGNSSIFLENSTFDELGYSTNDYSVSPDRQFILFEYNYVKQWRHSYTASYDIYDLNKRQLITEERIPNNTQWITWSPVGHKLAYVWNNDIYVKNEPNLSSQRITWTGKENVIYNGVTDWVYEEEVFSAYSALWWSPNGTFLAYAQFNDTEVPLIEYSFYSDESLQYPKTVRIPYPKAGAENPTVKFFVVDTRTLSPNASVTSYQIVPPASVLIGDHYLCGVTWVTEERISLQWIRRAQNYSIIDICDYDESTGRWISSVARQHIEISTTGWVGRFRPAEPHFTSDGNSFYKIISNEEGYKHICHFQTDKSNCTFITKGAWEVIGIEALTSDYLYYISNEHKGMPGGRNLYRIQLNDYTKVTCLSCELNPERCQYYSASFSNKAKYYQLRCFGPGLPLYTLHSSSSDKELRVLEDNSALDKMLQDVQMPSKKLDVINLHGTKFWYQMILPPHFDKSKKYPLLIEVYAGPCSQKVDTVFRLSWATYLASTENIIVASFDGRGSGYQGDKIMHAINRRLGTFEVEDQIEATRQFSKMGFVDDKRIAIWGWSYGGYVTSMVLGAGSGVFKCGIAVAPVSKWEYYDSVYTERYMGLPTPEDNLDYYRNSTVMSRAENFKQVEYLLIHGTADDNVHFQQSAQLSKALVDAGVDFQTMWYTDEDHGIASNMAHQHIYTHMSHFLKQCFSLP

Ki: 6.29 µM
SMILES: CCC(C)C(N)C(=O)C1CCCC1 (stereo not shown) [Example 1, 1-cyclopentyl-3-methyl-1-oxo-2-pentanaminium chloride]
